Results published in patent publication US10048272B2, “High-affinity small molecule formylpeptide receptor ligands from screening of combinatorial mixture-based libraries” (STC.UNM, priority 2013, dated 2018).
Entries after “also recorded” stand apart in the source; their conditions may differ. Blank lines part the entries; values can stand above or below the molecule they belong to.

Tests used:
FPR2 [1] = target: T1, FPR2 (Homo sapiens, UniProt P25090); test: Duplex flow cytometry receptor binding assay (WPep-FITC fluorescent ligand competition), RBL/FPR2 cells; set-up: expressed in transfected cells; details: for FPR2 selectivity: FPR2 over FPR1
T1 sequence (P25090 1-351): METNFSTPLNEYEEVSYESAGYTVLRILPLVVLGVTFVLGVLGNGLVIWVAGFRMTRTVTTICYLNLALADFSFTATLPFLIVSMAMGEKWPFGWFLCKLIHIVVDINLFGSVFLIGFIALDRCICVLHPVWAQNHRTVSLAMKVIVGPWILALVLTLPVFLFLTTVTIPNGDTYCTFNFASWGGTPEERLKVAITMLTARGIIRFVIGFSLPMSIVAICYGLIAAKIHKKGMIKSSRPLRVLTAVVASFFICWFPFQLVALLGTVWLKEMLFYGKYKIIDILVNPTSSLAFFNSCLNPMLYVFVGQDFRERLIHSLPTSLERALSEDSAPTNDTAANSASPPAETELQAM
Method: Flow cytometry receptor binding assay. The assay was performed in a “duplex” format in which U937/FPR1 cells were tested together with RBL/FPR2 cells as previously described (Young, et al., 2009)(PubChem Summary AIDs 805 and 1202). The FPR1-expressing cells were stained with a red-fluorescent dye, FuraRed™ allowing them to be distinguished from the FPR2-expressing cells during flow cytometric analysis. A fluorescein label was conjugated to the lysine residue of the WPep peptide (WKYMVm) to produce a fluorescent ligand (WPep-FITC) that bound both FPR1 and FPR2. […] Assays were performed in polystyrene 384-well plates with small volume wells (Greiner #784101). Additions to wells were in sequence as follows: (1) test compounds and control reagents (5 ul/well); (2) the combined suspension of U937/FPR1 and RBL/FPR2 cells (5 ul/well) and; (3) (after 30 min, 4° C. incubation) WPep-FITC (5 ul/well). After an additional 45 min, 4° C. incubation, plates were immediately analyzed using flow cytometry. The assay response range was defined by replicate control wells containing unlabeled receptor-blocking peptide (positive control) or buffer (negative control). fMLFF was used as the FPR1-blocking peptide and unlabeled WPep as the FPR2-blocking peptide. Final concentration of WPep-FITC was 5 nM. The assay was homogeneous in that cells, compounds and fluorescent peptide were added in sequence and the wells subsequently analyzed without intervening wash steps. […] Fluorescence was excited at 488 nm and detected with 530/40 and 680/30 optical bandpass filters for WPep-FITC and FuraRed™, respectively. Test compound inhibition of fluorescent peptide binding was calculated as percent inhibition. WPep-FITC fluorescence intensity measurements of cells from control wells were also used to calculate Z′ factors (Zhang, et al., 1999), which ranged between 0.6 and 0.8 for each assay. […]
(§1) FPR expression ranged from 100,000 to 200,000 receptors per cell in different assays as determined by comparison to standard curves generated with Fluorescein Reference Standard Microbeads (Bangs Laboratories, Fishers, Ind.). […] To account for effects of possible ligand depletion at the higher receptor concentrations, Ki values were calculated from IC50 estimates by the method of Munson and Rodbard (Munson and Rodbard, 1988): Ki=Kd×[y0/(y0+2]+IC50/{1+[p*×(y0+2)]/[2×Kd×(y0+1)]+y0} in which y0 is the initial bound-to-free concentration ratio for the fluorescent ligand, p* is the added concentration of fluorescent ligand and Kd is the dissociation constant for the fluorescent ligand.

FPR2 [2] = target: T1, FPR2; test: Intracellular calcium mobilization assay, FPR2 cells (agonist and antagonist determinations); assay type: cell-based; set-up: expressed in transfected cells; details: for Functional activity in FPR2-mediated intracellular Ca2+ response (agonist/antagonist): result in words
Method: (§2) Intracellular calcium mobilization assays. Intracellular calcium mobilization assays were performed as previously described with modifications (Edwards, et al., 2005). Briefly, cells were collected by centrifugation (200×g, 10 min, 24° C.) and suspended at 10^6/ml in 1 ml PBS (Ca^2+, Mg^2+ free). Cells were added with 210 nM Fluo4 (FPR2 cells) or with a combination of 210 nM Fluo4 and 210 nM FuraRed (FPR1 cells). After incubation for 30 min at 24° C. cells were washed with 1 ml PBS, suspended in 1 ml TCM (RPMI, 10% FBS) and stored in the dark at 24° C. until used in assays. For test compound agonist determinations, 50 μL from FPR1 and FPR2 cell suspensions were combined, analyzed 10 s in an Accuri C6 flow cytometer (BD Biosciences) to determine baseline Fluo4 fluorescence in the FL1 channel (530/20 nm), then added with 50 μL containing test compounds and analyzed an additional 110 s to evaluate changes in Fluo4 fluorescence intensity. During the analysis FPR1 cells were distinguished from FPR2 cells on the basis of FuraRed fluorescence intensity detected in the FL3 channel ([…]). The innate calcium response was quantified as the maximum % of cells that exceeded the baseline Fluo4 fluorescence intensity over the course of the analysis. These responses were normalized to the innate calcium responses observed in the presence of 11 nM control peptides: 4pep for FPR1 cells and Wpep for FPR2 cells as follows: Normalized Calcium Response (%)=100×innate response % to test compound/innate response % to control peptide.
(§3) For test compound antagonist determinations, 10 μL test compound was added to the combined FPR1/FPR2 cell mixture and incubated 5 min at 24° C. prior to assessing the innate calcium response to subsequent addition of fMLFF or Wpep peptide. In these determinations, fMLFF and Wpep were used at concentrations that produced 90% of the maximal intracellular calcium response (EC90), and responses were normalized with respect to the innate response to each control peptide observed in the absence of test compounds.
(§4) Intracellular Ca^2+ dose response curves were also fitted using nonlinear least-squares regression in a sigmoidal dose response model with variable slope. Curve fit statistics were used to determine the concentration of added test compound competitor that inhibited Ca^2+ responses by 50 percent (IC50) for antagonists or effected increases in Ca^2+ response by 50% (EC50) for agonists. Since responses were normalized relative to control stimuli the top and bottom of the fitted curves were fixed at 100 and 0.

FPR1 [3] = target: T2, FPR1 (Homo sapiens, UniProt P21462); test: Duplex flow cytometry receptor binding assay (WPep-FITC fluorescent ligand competition), U937/FPR1 cells; set-up: expressed in transfected cells; host or cells: U937 cells (U937/FPR1); details: for Ki: WPep-FITC displacement, U937/FPR1 cells
T2 sequence (P21462 1-350): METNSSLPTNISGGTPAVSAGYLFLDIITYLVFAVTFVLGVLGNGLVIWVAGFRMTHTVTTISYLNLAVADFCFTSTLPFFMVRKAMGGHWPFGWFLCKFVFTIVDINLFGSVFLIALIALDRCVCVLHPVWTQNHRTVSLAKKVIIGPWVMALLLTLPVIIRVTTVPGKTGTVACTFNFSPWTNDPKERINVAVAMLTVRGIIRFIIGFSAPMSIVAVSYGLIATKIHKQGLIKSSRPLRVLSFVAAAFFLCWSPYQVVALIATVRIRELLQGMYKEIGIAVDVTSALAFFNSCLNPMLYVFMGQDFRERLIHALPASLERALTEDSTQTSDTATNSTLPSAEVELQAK
Method: Flow cytometry receptor binding assay. The assay was performed in a “duplex” format in which U937/FPR1 cells were tested together with RBL/FPR2 cells as previously described (Young, et al., 2009)(PubChem Summary AIDs 805 and 1202). The FPR1-expressing cells were stained with a red-fluorescent dye, FuraRed™ allowing them to be distinguished from the FPR2-expressing cells during flow cytometric analysis. A fluorescein label was conjugated to the lysine residue of the WPep peptide (WKYMVm) to produce a fluorescent ligand (WPep-FITC) that bound both FPR1 and FPR2. […] Assays were performed in polystyrene 384-well plates with small volume wells (Greiner #784101). Additions to wells were in sequence as follows: (1) test compounds and control reagents (5 ul/well); (2) the combined suspension of U937/FPR1 and RBL/FPR2 cells (5 ul/well) and; (3) (after 30 min, 4° C. incubation) WPep-FITC (5 ul/well). After an additional 45 min, 4° C. incubation, plates were immediately analyzed using flow cytometry. The assay response range was defined by replicate control wells containing unlabeled receptor-blocking peptide (positive control) or buffer (negative control). fMLFF was used as the FPR1-blocking peptide and unlabeled WPep as the FPR2-blocking peptide. Final concentration of WPep-FITC was 5 nM. The assay was homogeneous in that cells, compounds and fluorescent peptide were added in sequence and the wells subsequently analyzed without intervening wash steps. The HyperCyt™ high-throughput flow-cytometry platform (Kuckuck, et al., 2001; Ramirez, et al., 2003) was used to sequentially sample cells from wells of 384-well microplates (2 ul/sample) for presentation to a CyAn flow cytometer (Beckman-Coulter) at a rate of 40 samples/min. Fluorescence was excited at 488 nm and detected with 530/40 and 680/30 optical bandpass filters for WPep-FITC and FuraRed™, respectively. Test compound inhibition of fluorescent peptide binding was calculated as percent inhibition. WPep-FITC fluorescence intensity measurements of cells from control wells were also used to calculate Z′ factors (Zhang, et al., 1999), which ranged between 0.6 and 0.8 for each assay.
Dose response determinations. Fluorescent ligand competition dose response assays were performed essentially as described for single concentration assays except that test compounds were initially tested at a starting concentration of 10 mM in DMSO and serially diluted 1:3 to produce final concentration ranging from 67 μM to 0.1 nM. The resulting ligand competition curves were fitted by Prism software (GraphPad Software, Inc., San Diego, Calif.) using nonlinear least-squares regression in sigmoidal dose response model with variable slope, also known as the four parameter logistic equation. […]
as §1

FPR2 [4] = target: T1, FPR2; details: literature; cited from earlier work
FPR1 [5] = target: T2, FPR1; test: Intracellular calcium mobilization assay, FPR1 cells (agonist and antagonist determinations); assay type: cell-based; set-up: expressed in transfected cells; host or cells: U937 cells (U937/FPR1); details: for Functional activity in FPR1-mediated intracellular Ca2+ response (agonist/antagonist): result in words
Method: as §2, §3, §4

FPR1 [6] = target: T2, FPR1; details: literature; cited from earlier work
[7] = second compound of the printed pair relative to the first (1754-26 to 1754-56)

Ki (FPR2 [1]; WPep-FITC displacement, RBL/FPR2 cells): 1 nM | FPR2 selectivity (FPR2 [1]; as printed in b133 ('nM Ki')): > 10,000 nM | FPR2 selectivity (FPR2 [1]; no unit): > 10,000 | IC50 (FPR2 [2]; antagonist determination, Wpep at EC90, read-out: IC50, intracellular Ca2+ response, FPR2 antagonist): 81 nM | Functional activity in FPR2-mediated intracellular Ca2+ response (agonist/antagonist) (FPR2 [2]): antagonist | Receptor selectivity, FPR1 versus FPR2, in ligand competition binding (in words) (FPR1 [3]): FPR2 selective | Ki (FPR1 [3]): > 10000 nM
Compound: CC(C)[C@H]1CNC(=O)C(=O)N1C[C@@H]1CCCN1C[C@@H](Cc1ccc2ccccc2c1)N1C[C@@H](Cc2ccc(O)cc2)N(CC2CCCCC2)C(=O)C1=O [1754-31]

Compound: CCCCOc1ccc(C(=O)NN2C(=O)c3ccccc3NC2c2ccc(OC)cc2)cc1 (centres unmarked) [Quin-C1]
Functional activity at FPR2 (in words) (FPR2 [4]): agonist

Ki (FPR1 [3]): 4 nM | EC50 (FPR1 [5]; agonist determination, read-out: EC50, intracellular Ca2+ response, FPR1 agonist): 131 nM | Response efficacy (fitted Top), Ca2+ response in FPR1 cells (FPR1 [5]; maximum response relative to control peptide 4pep (fMLFF)): 78%
Compound: CCCC[C@H](CN(C(=O)Nc1ccccc1)[C@@H](C)CNC(=O)Nc1ccccc1)N(CCCCc1ccccc1)C(=O)Nc1ccccc1 [1753-103]
Functional activity in FPR1-mediated intracellular Ca2+ response (agonist/antagonist) (FPR1 [5]): selective partial agonists; also recorded: agonist

Decrease of activity for FPR2 (potency difference, pKi) (FPR2 [1]; [7]): 1.28 log units | EC50, FPR2-mediated Ca2+ response, agonist (in words) (FPR2 [2]; matched the Ki value of the ligand displacement assay): low micromolar | Response efficacy (fitted Top), Ca2+ response in FPR2 cells (FPR2 [2]; maximum response relative to control peptide Wpep (WKYMVm)): 98% | Functional activity in FPR2-mediated intracellular Ca2+ response (agonist/antagonist) (FPR2 [2]): agonist | Receptor selectivity, FPR1 versus FPR2, in ligand competition binding (in words) (FPR1 [3]): FPR1 selective | Increase of activity for FPR1 (potency difference, pKi) (FPR1 [3]; [7]): 1.36 log units | Functional activity in FPR1-mediated intracellular Ca2+ response (agonist/antagonist) (FPR1 [5]): antagonist
Compound: CCCC[C@H]1CNC(=O)C(=O)N1C[C@@H]1CCCN1C[C@@H](CCC)N1C[C@@H](Cc2ccc(O)cc2)N(CCc2ccc(-c3ccccc3)cc2)C(=O)C1=O [1754-56]

Compound: CCCCOc1ccc(C(=O)NN2C(=O)c3ccccc3NC2c2ccc(O)cc2)cc1 (centres unmarked) [Quin-C7]
Functional activity at FPR1 (in words) (FPR1 [6]): antagonist
